Reference: DBAASP
≈ marks a conversion by molar mass, not a printed value. Each block holds one compound with its values, some of them ahead of it.

Key:
Experiment in all cases: ≥ marks a high value that may be exact or a test limit, other limits are often not marked, values filed in µg/mL are converted to µM
[1] = system: Salmonella enterica subsp. enterica serovar Paratyphi B CICC 10437
[2] = system: Bacillus subtilis CICC 10034
[3] = system: Enterobacter cloacae CICC 21539
[4] = system: Serratia marcescens ATCC 4112
[5] = system: Listeria innocua CICC 10417
[6] = system: Pseudomonas aeruginosa CICC 21636
[7] = system: Staphylococcus aureus CICC 10384
[8] = system: Escherichia coli CICC 10293
[9] = system: Staphylococcus aureus CICC 10306
[10] = system: Escherichia coli ATCC 25922
[11] = system: Streptococcus pneumoniae
[12] = system: Klebsiella pneumoniae
[13] = system: Citrobacter sp.
[14] = system: Enterobacter cloacae
[15] = system: Staphylococcus aureus ATCC 25923
[16] = system: Staphylococcus aureus
[17] = system: Acinetobacter baumannii ATCC 15308
[18] = system: Pseudomonas aeruginosa ATCC 15442
[19] = system: Serratia marcescens ATCC 21202
[20] = system: Streptococcus pyogenes ATCC 19615
[21] = system: Klebsiella pneumoniae ATCC 700603
[22] = system: Pseudomonas aeruginosa ATCC 27853
[23] = system: Salmonella enterica subsp. enterica serovar Enteritidis ATCC 13076
[24] = system: Bacillus cereus ATCC 11778
[25] = system: Staphylococcus aureus ATCC 29213
[26] = system: Salmonella enterica subsp. enterica serovar Pullorum C79-13
[27] = system: Candida albicans CA2761
[28] = system: Escherichia coli 078
[29] = system: Candida tropicalis CGMCC 2.1975
[30] = system: Candida krusei CGMCC 2.1857
[31] = system: Enterococcus faecalis ATCC 29212
[32] = system: Bacillus subtilis CMCC 63501
[33] = system: Escherichia coli K99
[34] = system: Salmonella enterica subsp. enterica serovar Typhimurium C77-31
[35] = system: Candida albicans CGMCC 2.2086
[36] = system: Salmonella enterica subsp. enterica serovar Typhimurium ATCC 14028
[37] = system: Staphylococcus epidermidis ATCC 12228
[38] = system: Escherichia coli K88
[39] = system: Escherichia coli UB1005
[40] = system: Escherichia coli EC183
[41] = system: Bacillus cereus C737
[42] = system: Pseudomonas aeruginosa PAO1
[43] = system: Vibrio anguillarum ATCC 43305
[44] = system: Acinetobacter baumannii ATCC 19606
[45] = system: Bacillus subtilis ATCC 6051
[46] = system: Escherichia coli ESBL 63103
[47] = system: Candida albicans C627
[48] = system: Pseudomonas aeruginosa H103
[49] = system: Staphylococcus aureus C623
[50] = system: Pseudomonas aeruginosa LES400
[51] = system: Enterococcus faecium mic80
[52] = system: Pseudomonas aeruginosa 213

Structure (SMILES): CSCC[C@H](NC(=O)[C@@H](NC(=O)[C@@H](N)CCCN=C(N)N)C(C)C)C(=O)N[C@@H](Cc1ccccc1)C(=O)N[C@@H](CCCCN)C(=O)N[C@@H](Cc1c[nH]c2ccccc12)C(=O)N[C@@H](C)C(=O)O [RVMFKWA]
MIC [1]: ≥ 34.1 µM
MIC [2]: ≥ 34.1 µM
MIC [3]: ≥ 34.1 µM
MIC [4]: ≥ 34.1 µM
MIC [5]: 8.54 µM (≈ 8 µg/mL)
MIC [6]: ≥ 34.1 µM
MIC [7]: 8.54 µM (≈ 8 µg/mL)
MIC [8]: 17.1 µM (≈ 16 µg/mL)
MIC [9]: 8.54 µM (≈ 8 µg/mL)

Structure (SMILES): NC(=O)[C@H](CCCN=C(N)N)NC(=O)[C@H](CCCN=C(N)N)NC(=O)[C@H](Cc1c[nH]c2ccccc12)NC(=O)[C@@H]1CCCN1C(=O)[C@H](Cc1c[nH]c2ccccc12)NC(=O)[C@H](Cc1c[nH]c2ccccc12)NC(=O)[C@@H]1CCCN1C(=O)[C@H](Cc1c[nH]c2ccccc12)NC(=O)[C@H](CCCN=C(N)N)NC(=O)[C@H](Cc1c[nH]c2ccccc12)NC(=O)[C@@H]1CCCN1C(=O)[C@H](CCCN=C(N)N)NC(=O)[C@@H](N)CCCN=C(N)N [RRPWRWPWWPWRR]
MIC [10]: 15.5 µM (≈ 31.2 µg/mL)
MIC [11]: 15.5 µM (≈ 31.2 µg/mL)
MIC [12]: > 124 µM
MIC [13]: ≥ 124 µM
MIC [14]: ≥ 124 µM
MIC [15]: 15.5 µM (≈ 31.2 µg/mL)
MIC [16]: 15.5 µM (≈ 31.2 µg/mL)
MIC [17]: ≥ 124 µM
MIC [18]: 15.5 µM (≈ 31.2 µg/mL)

Structure (SMILES): CC[C@H](C)[C@H](NC(=O)[C@H](CCCN=C(N)N)NC(=O)[C@H](CCCN=C(N)N)NC(=O)[C@@H](NC(=O)[C@@H](NC(=O)[C@H](CCCN=C(N)N)NC(=O)[C@H](CCCN=C(N)N)NC(=O)[C@H](Cc1ccccc1)NC(=O)[C@H](CCCN=C(N)N)NC(=O)[C@H](CCCN=C(N)N)NC(=O)[C@H](CCCN=C(N)N)NC(=O)[C@H](CCCN=C(N)N)NC(=O)[C@@H](N)CCCN=C(N)N)C(C)C)[C@@H](C)CC)C(=O)N[C@@H](CCCN=C(N)N)C(=O)N[C@@H](CC(C)C)C(=O)N1CCC[C@H]1C(=O)N[C@@H](CCCCN)C(=O)N[C@@H](Cc1ccc(O)cc1)C(=O)N[C@@H](CC(C)C)C(=O)N[C@H](C(=O)N[C@H](C(=O)N[C@@H](CC(N)=O)C(=O)N[C@H](C(=O)N[C@@H](CCC(=O)O)C(=O)O)[C@@H](C)O)[C@@H](C)CC)[C@@H](C)O [RRRRRFRRVIRRIRLPKYLTINTE]
MIC [43]: ≥ 32 µM
MIC [10]: 4 µM (≈ 12.9 µg/mL)
MIC [22]: 32 µM (≈ 103 µg/mL)
MIC [44]: 2 µM (≈ 6.45 µg/mL)
MIC [15]: 8 µM (≈ 25.8 µg/mL)
MIC [45]: ≥ 32 µM

Structure (SMILES): NCCCC[C@H](NC(=O)[C@@H](N)CCCN=C(N)N)C(=O)N[C@@H](CCCN=C(N)N)C(=O)N[C@@H](Cc1c[nH]c2ccccc12)C(=O)N[C@@H](Cc1c[nH]c2ccccc12)C(=O)N[C@@H](Cc1c[nH]c2ccccc12)C(=O)N[C@@H](Cc1c[nH]c2ccccc12)C(=O)N[C@@H](Cc1ccccc1)C(=O)N[C@@H](CCCN=C(N)N)C(=O)O [RKRWWWWFR]
MIC [46]: 5.31 µM (≈ 8 µg/mL)
MIC [47]: 5.31 µM (≈ 8 µg/mL)
MIC [48]: 1.33 µM (≈ 2 µg/mL)
MIC [49]: 1.33 µM (≈ 2 µg/mL)
MIC [50]: 21.2 µM (≈ 32 µg/mL)
MIC [15]: 2.65 µM (≈ 4 µg/mL)
MIC [51]: 5.31 µM (≈ 8 µg/mL)
MIC [52]: 5.31 µM (≈ 8 µg/mL)

The remaining lines, values ahead:

MIC [19]: ≥ 68.6 µM
MIC [20]: ≥ 68.6 µM
MIC [21]: > 68.6 µM
MIC [10]: > 68.6 µM
MIC [22]: > 68.6 µM
MIC [23]: ≥ 68.6 µM
MIC [24]: ≥ 68.6 µM
MIC [25]: > 68.6 µM
Structure (SMILES): CC[C@H](C)[C@H](N)C(=O)N[C@H](C(=O)N1CCC[C@H]1C(=O)N[C@@H](CC(C)C)C(=O)N1CCC[C@H]1C(=O)N[C@@H](CC(C)C)C(=O)NCC(=O)N[C@@H](Cc1ccc(O)cc1)C(=O)N[C@@H](Cc1ccccc1)C(=O)N[C@@H](C)C(=O)N[C@@H](CCCCN)C(=O)N[C@@H](CCCCN)C(=O)N1CCC[C@H]1C(=O)O)[C@@H](C)CC [IIPLPLGYFAKKP]

MIC [26]: 4 µM (≈ 5.92 µg/mL)
MIC [10]: 8 µM (≈ 11.8 µg/mL)
MIC [27]: ≥ 128 µM
MIC [28]: 16 µM (≈ 23.7 µg/mL)
MIC [29]: 8 µM (≈ 11.8 µg/mL)
MIC [30]: 16 µM (≈ 23.7 µg/mL)
MIC [31]: 64 µM (≈ 94.8 µg/mL)
MIC [32]: 2 µM (≈ 2.96 µg/mL)
MIC [33]: 4 µM (≈ 5.92 µg/mL)
MIC [34]: 8 µM (≈ 11.8 µg/mL)
MIC [35]: ≥ 128 µM
MIC [36]: 16 µM (≈ 23.7 µg/mL)
MIC [15]: 128 µM (≈ 190 µg/mL)
MIC [37]: 64 µM (≈ 94.8 µg/mL)
MIC [38]: 4 µM (≈ 5.92 µg/mL)
MIC [39]: 16 µM (≈ 23.7 µg/mL)
MIC [40]: 2 µM (≈ 2.96 µg/mL)
MIC [25]: 64 µM (≈ 94.8 µg/mL)
Structure (SMILES): CC[C@H](C)[C@H](NC(=O)[C@H](Cc1c[nH]c2ccccc12)NC(=O)[C@H](CCCCN)NC(=O)[C@H](CC(C)C)NC(=O)[C@@H](NC(=O)[C@H](CCCCN)NC(=O)CNC(=O)[C@@H](NC(=O)[C@H](CCCCN)NC(=O)[C@H](CCCCN)NC(=O)[C@H](CC(C)C)NC(=O)[C@@H](N)CCCN=C(N)N)[C@@H](C)CC)C(C)C)C(N)=O [RLKKIGKVLKWI]

MIC [41]: ≥ 115 µM
MIC [42]: > 115 µM
MIC [39]: ≥ 115 µM
Structure (SMILES): CC[C@H](C)[C@H](NC(=O)[C@H](CC(=O)O)NC(=O)[C@H](Cc1ccccc1)NC(=O)[C@H](CC(C)C)NC(=O)CN)C(=O)N[C@H](C(=O)N[C@@H](CCCCN)C(=O)N[C@@H](CCCCN)C(=O)N[C@H](C(=O)N[C@H](C(N)=O)C(C)C)C(C)C)C(C)C [GLFDIVKKVV]
